Experimental data: ChEMBL document CHEMBL5233220, “A review of currently identified small molecule modulators of microRNA function” (Eur J Med Chem, 2020)
Several values for one entry are separate records, joined by “and”; a condition that tells them apart may be missing. Equal entries are not always repeated.

Experiments:
[1] = Inhibition of pre-miR-372 (unknown origin) by FRET assay
[2] = Inhibition of pre-miR-373 (unknown origin) by FRET assay
[3] = Inhibition of pre-miR-373 (unknown origin) at 250 uM by FRET assay relative to control
Protein lin-28 homolog A = target: T1, Protein lin-28 homolog A (Homo sapiens, UniProt Q9H9Z2); experiment: Inhibition of LIN28A (unknown origin) by FRET assay
T1 sequence (Q9H9Z2 whole entry): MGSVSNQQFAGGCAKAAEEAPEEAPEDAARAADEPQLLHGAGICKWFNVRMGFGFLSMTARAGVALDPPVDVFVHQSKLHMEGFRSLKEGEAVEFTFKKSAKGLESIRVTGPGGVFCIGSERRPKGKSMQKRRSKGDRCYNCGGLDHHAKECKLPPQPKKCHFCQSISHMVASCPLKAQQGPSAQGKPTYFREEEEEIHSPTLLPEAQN

[4] = Binding affinity to pre-miR-21 (unknown origin) assessed as dissociation constant by fluorescence-based assay
[5] = Inhibition of miR-122 (unknown origin) assessed as relative light unit by luciferase assay
[6] = Inhibition of miR-27a (unknown origin) maturation at 5 uM relative to control
[7] = Binding affinity to pre-miR-21 (unknown origin) assessed as dissociation constant by microarray assay

NC[C@@H]1O[C@H](O[C@H]2[C@@H](O)[C@H](O[C@@H]3[C@@H](O)[C@H](N)C[C@H](N)[C@H]3O[C@H]3O[C@H](CN)[C@@H](O)[C@H](O)[C@H]3N)O[C@@H]2n2cc(Cn3cnc(-c4cccc(NC(=O)c5ccccc5)c4)c3)nn2)[C@H](N)[C@@H](O)[C@@H]1O
IC50 [1]: 8.3 µM
IC50 [2]: 8.96 µM
inhibition [3]: 20%

c1ccc(CN(CCN(Cc2ccccn2)Cc2ccccn2)Cc2ccccn2)nc1
IC50 (Protein lin-28 homolog A): 2.5 µM

O=c1cc(N2CCC(N3CCCC3)CC2)c2ccccc2o1
Kd [4]: 23 µM

CC(=O)N(C)c1cccc(-c2ccc3nnc(C)n3n2)c1
IC50 (Protein lin-28 homolog A): 8 µM

CC1(C)Oc2cc(N3CCN(C(=O)OCc4ccccc4)CC3)c([N+](=O)[O-])cc2-c2c1cnn2-c1ccc(C(=O)O)cc1
IC50 (Protein lin-28 homolog A): 4.03 µM

CCCCNC(=O)Nc1cccc(-c2cn(Cc3cn([C@H]4O[C@@H](O[C@@H]5[C@@H](O)[C@H](N)C[C@H](N)[C@H]5O[C@H]5O[C@H](CN)[C@@H](O)[C@H](O)[C@H]5N)[C@H](O)[C@@H]4O[C@H]4O[C@@H](CN)[C@@H](O)[C@H](O)[C@H]4N)nn3)cn2)c1
IC50 [1]: 25.6 µM
IC50 [2]: 17.3 µM
inhibition [3]: 20%

CC(=O)c1ccc(C(=O)Nc2ccc3ccccc3c2)cc1
Activity [5]: 6.7 RLU

O=S(=O)(Nc1ccccc1)c1ccc2c(c1)CCCN2
Activity [5]: 9.9 RLU

NC[C@@H]1O[C@H](O[C@H]2[C@@H](O)[C@H](O[C@@H]3[C@@H](O)[C@H](N)C[C@H](N)[C@H]3O[C@H]3O[C@H](CN)[C@@H](O)[C@H](O)[C@H]3N)O[C@@H]2CO)[C@H](N)[C@@H](O)[C@@H]1O [FRAMYCETIN]
IC50 [1]: 125 µM
IC50 [2]: 178 µM
inhibition [3]: 100%
inhibition [6]: 25%

NC[C@@H]1O[C@H](O[C@H]2[C@@H](O)[C@H](O[C@@H]3[C@@H](O)[C@H](N)C[C@H](N)[C@H]3O[C@H]3O[C@H](CN)[C@@H](O)[C@H](O)[C@H]3N)O[C@@H]2n2cc(CCC(=O)NCC(=O)Nc3nc4ccccc4[nH]3)nn2)[C@H](N)[C@@H](O)[C@@H]1O
IC50 [1]: 10.3 µM
IC50 [2]: 8.57 µM
inhibition [3]: 20%

CCCCNC(=O)Nc1ccc2oc(CCc3cn([C@H]4O[C@@H](O[C@@H]5[C@@H](O)[C@H](N)C[C@H](N)[C@H]5O[C@H]5O[C@H](CN)[C@@H](O)[C@H](O)[C@H]5N)[C@H](O)[C@@H]4O[C@H]4O[C@@H](CN)[C@@H](O)[C@H](O)[C@H]4N)nn3)nc2c1
IC50 [1]: 16.3 µM
IC50 [2]: 20.8 µM
inhibition [3]: 20%

NC[C@H]1O[C@H](O[C@H]2[C@H](O)[C@@H](O[C@H]3O[C@H](CO)[C@@H](O)[C@H](N)[C@H]3O)[C@H](N)C[C@@H]2N)[C@H](O)[C@@H](O)[C@@H]1O
inhibition [6]: 25%

CCCCCCNS(=O)(=O)c1ccc2c(c1)CCCN2
Activity [5]: 11.9 RLU

COc1ccccc1CCNC1CC(=O)C(c2ccc(C)cc2)C1=O (centres undefined)
Kd [4]: 38 µM

OC(CNc1cccc(Cl)c1)Cn1c2ccc(Br)cc2c2cc(Br)ccc21 (centres undefined)
Kd [7]: 1200 nM and 800 nM

CCOc1cccc2c1N[C@@H](c1ccc(C(=O)O)cc1)[C@H]1CC=C[C@@H]21
IC50 (Protein lin-28 homolog A): 7 µM

NC[C@H]1O[C@H](O[C@H]2[C@H](O)[C@@H](O[C@H]3O[C@H](CO)[C@@H](O)[C@H](N)[C@H]3O)[C@H](N)C[C@@H]2N)[C@H](N)C[C@@H]1O
inhibition [6]: 10%

C/C(=N\NC(=O)c1ccccn1)c1c(C)[nH]n(-c2ccccc2)c1=O
Kd [4]: 109 µM

O=C(Nc1ccc2ccccc2c1)c1ccc([N+](=O)[O-])cc1
Activity [5]: 6.2 RLU

CN[C@@H]1[C@H](O[C@H]2[C@H](O[C@H]3[C@H](O)[C@@H](O)[C@H](N=C(N)N)[C@@H](O)[C@@H]3N=C(N)N)O[C@@H](C)[C@]2(O)C=O)O[C@@H](CO)[C@H](O)[C@H]1O
inhibition [6]: 25%

CCOc1ccc(NCC(O)Cn2c3ccc(Br)cc3c3cc(Br)ccc32)cc1 (centres undefined)
Kd [7]: 1200 nM

OC(CNc1ccc(N2CCOCC2)cc1)Cn1c2ccc(Br)cc2c2cc(Br)ccc21 (centres undefined)
Kd [7]: 2100 nM

CCCOc1ccc(NCC(O)Cn2c3ccc(Br)cc3c3cc(Br)ccc32)cc1 (centres undefined)
Kd [7]: 2200 nM
